Results published in article PMC6949113, “Preclinical evaluation of AT-527, a novel guanosine nucleotide prodrug with potent, pan-genotypic activity against hepatitis C virus” (PLoS ONE, 2020).

Legend:
Zika = assay: Anti-Zika virus assay (XTT); assay type: cell-based; conditions: Zika in Vero cells
Excerpt: Anti-Zika Virus (Zika). […] Monolayers were approximately 70% confluent for the assay. Zika virus strain MR766 was obtained from ATCC (VR-84) and a stock virus pool was produced in LLCMK2 cells.
(§1) Determination of antiviral activity and cytotoxicity.

HRV = assay: Anti-human rhinovirus assay (XTT); assay type: cell-based; conditions: Human rhinovirus sp.; HRV in H1-HeLa cells
Excerpt: (§2) Anti-Human Rhinovirus (HRV).
as §1

AdV = assay: Anti-adenovirus assay (XTT); assay type: cell-based; conditions: unidentified adenovirus; AdV in HeLa cells
Excerpt: as §1

CoV = assay: Anti-coronavirus assay (XTT); assay type: cell-based; conditions: MRC5; CoV in MRC-5 cells
Excerpt: as §1

Vero cells = assay: XTT cytotoxicity, Vero cells; assay type: cell-based, African green monkey; conditions: Zika assay
H1-HeLa cells = assay: XTT cytotoxicity, H1-HeLa cells; assay type: cell-based; conditions: HRV assay
Excerpt: as §2, §1

HeLa cells = assay: XTT cytotoxicity, HeLa cells; assay type: cell-based; conditions: AdV assay
MRC-5 cells = assay: XTT cytotoxicity, MRC-5 cells; assay type: cell-based; conditions: MRC-5, CoV assay
Excerpt: as §1

Compound: NC(=O)c1ncn([C@@H]2O[C@H](CO)[C@@H](O)[C@H]2O)n1 [Ribavirin]
- EC50 (Zika): 5.65 µM
- EC50 (HRV): 17.1 µM
- EC50 (AdV): 760 nM
- EC50 (CoV): 3.85 µM
- TC50 (Vero cells): 38.8 µM
- TC50 (H1-HeLa cells): 40.6 µM
- TC50 (HeLa cells): 11.7 µM
- TC50 (MRC-5 cells): >100 µM
